{"source": "patent US10472341B2", "about": "“Bicyclic tetrahydrothiazepine derivatives useful for the treatment of neoplastic and/or infectious diseases” (APEIRON BIOLOGICS AG, priority 2015, dated 2019)", "key": {"[1]": {"test_system": "TCR-mediated activation of CD4 and CD8 cells", "test": "Anti-CD3 PD model in mice: CD69 on splenic T-cells, plasma cytokines", "type": "in vivo, mouse", "conditions": "for CD4+ / CD8+ / CD69+ / CD69+ in CD4+ / CD69+ in CD8+: spleen flowcytometry; for CD4+ / CD8+ / CD69+ / CD69+ in CD4+ / CD69+ in CD8+ / IFN-γ / IL-2 / IL-6 / IL-10 / TNF-α: t=4.0 h; for IFN-γ / IL-2 / IL-6 / IL-10 / TNF-α: terminal plasma", "source_text": "Detection of antigen-specific T cell activation and proliferation in vivo is technically challenging since it requires the development and validation of research reagents to detect low-frequency T cells specific for a cognate antigen and also the establishment of specific measurement procedure for following cellular activation and/or proliferation in blood or secondary lymphoid organs. As a surrogate model for the determination of polyclonal T-cell activation in mice, a pharmacological system was designed and employed where adult […] mice were injected with anti-CD3 antibody to elicit TCR triggering and responses of a broad population of peripheral T-cells. To quantitatively determine T-cell responses, systemic IL-2, TNF-alpha and IFN-gamma levels were measured in blood serum as well as the expression of the early activation marker CD69 on splenic CD4 or CD8 T-cells […] after treatment.\nIt was investigated whether the oral application of compound affected the low-level of activation of a major subset of splenic T-cells by injection of anti-CD3 antibody as exemplified by increased serum levels of IL-2, IFN-gamma and TNF-alpha vis-à-vis untreated mice as well as an increase of CD69-expressing splenic T-cells from 2-10% to 15-20%.\n[…] Compound example 1 was dosed twice orally as suspension (0.5% methylcellulose in water) at t=−1.0 h and t=1.0 h. • 3. Mice were terminated at t=4.0 h and their spleens and plasma harvested for flow cytometry and cytokine analysis respectively. • 4. Cytokine concentrations in terminal plasma samples were determined with MSD kits according to manufacturer's instructions."}, "CD8 T cells": {"test_system": "CD8 T cells", "test": "CD8 T cell viability (number of living cells) with or without M21 cells", "type": "cell-based, human", "procedure": "Isolated PBMCs, NK cells or CD8 positive cells were plated in Xvivo medium at 1.5*10^5 cells per in 96 well culture plates in the presence of 0.3*10^4 tumor cells where indicated. Cytokine secretion was determined by ELISA, immune cell activation (using Beckman-Coulter Abs CD25-PC5, CD69-PC7), cell viability and numbers by flow cytometry (Beckman-Coulter FC500 or Gallios) using 7-AAD exclusion as criterion for living cells. CD8-positive immune cells were isolated from PBMCs and were incubated with and without compound example 67, either alone or in co-culture with M21 melanoma cells."}, "OT-II cells": {"test_system": "OT-II cells", "test": "OT-II transfer model, intravenous administration", "type": "in vivo, mouse", "conditions": "LPS & OVA", "procedure": "• Single cell suspension of splenocytes was prepared from the spleen by rinsing cells through a sterile 70 μm filter with PBS • Cells were collected by centrifugation in an 15 ml tube, the cell pellet was resuspended in 1 ml of Erylyse buffer and incubated at room temperature for 5 minutes, tubes were filled up with PBS and cells were washed twice • Cells were counted and resuspended in the desired buffer volume for MACS-enrichment or flow cytometric analysis Isolation of CD4 T Cells from OT-II Transgenic Mice • Splenocytes were resuspended in MACS buffer ([…] MACS-buffer/10^7 cells) • CD4 T cells were isolated using the CD4 T cell isolation kit (Miltenyi) with LS-columns following manufacturer's recommendations CFSE-Labeling of T Cells • Cells were resuspended in PBS with 0.1% BSA at 1×10^7 cells/ml and CFSE-solution was added to final concentration of 2.5 μM CFSE • Incubated for 10 min at 37° C., swung each 2 min • Same volume of FCS added and incubated for 5 min at room temperature • Cells were washed twice with RMPI-10% FCS medium • Cells were counted and resuspended in PBS or medium at desired concentration OT-II Transfer • Day 0: OT-II cells were transferred in PBS (3*10^6. Cells in 100 μl PBS) by retro-orbital injection • Day 1: WT mice got OVA vaccinated (subcut. flank, 10 μg LPS, 2 μg OVA per animal) • 2 & 4 h later compounds were administrated; for oral dosing compound was used as suspension (0.5% methylcellulose in water), for i.v. dosing compound was solubilized in DMSO and diluted with PBS • Day 2: compounds were administrated twice in the morning (with 2 h time interval) • Day 3: Mice were sacrificed & splenocytes were isolated • T cell proliferation & phenotype was determined by flow cytometry • Flow cytometry-Staining (all Abs purchased from eBioscience and used as recommended by the manufacturer): B220-eF450, CD4-PE, CD25PerCPCy5.5, CD69-PC7, TCRVa2-APC, CD8-AF700, CD3-eF780; CFSE; 7-AAD • Acquisition on Beckman-Coulter Gallios, Analysis using Kaluza Software OT-I Transfer to Mice with B16-F10-OVA Tumors • Day 0: 100000 B16-F10-OVA tumor cells were inoculated subcutaneously at the flank of WT-mice • Day 7: OT-I cells were transferred in PBS (3*10^6. […]"}}, "note": "Counter-ions that a name gives are not always drawn."}
{"smiles": "N[C@H]1CS(=O)(=O)c2cc(F)c(C(=O)NC3CC3(F)F)cc2N(Cc2ccc(Cl)cc2)C1=O", "note": "(stereo partly drawn) [Example 1, (3R)-3-amino-5-[(4-chlorophenyl)methyl]-N-(2,2-difluorocyclopropyl)-8-fluoro-1,1,4-trioxo-2,3,4,5-tetrahydro-1λ^6,5-benzothiazepine-7-carboxamide hydrochloride]", "values": [{"measurement": "TCR-mediated activation of CD4 and CD8 cells in vivo", "setting": "[1]; mice, anti-CD3 i.p., compound oral, five hours", "value": "is able to substantially enhance TCR-mediated activation of CD4 and CD8 cells in vivo"}, {"measurement": "CD4+", "setting": "[1]; 25 mg/kg dosed twice orally", "value": 22.95, "unit": "%"}, {"measurement": "CD8+", "setting": "[1]; 25 mg/kg dosed twice orally", "value": 16.33, "unit": "%"}, {"measurement": "CD69+", "setting": "[1]; 25 mg/kg dosed twice orally", "value": 12.65, "unit": "%"}, {"measurement": "CD69+ in CD4+", "setting": "[1]; 25 mg/kg dosed twice orally", "value": 26.75, "unit": "%"}, {"measurement": "CD69+ in CD8+", "setting": "[1]; 25 mg/kg dosed twice orally", "value": 32.40, "unit": "%"}, {"measurement": "CD4+", "setting": "[1]; 50 mg/kg dosed twice orally", "value": 22.86, "unit": "%"}, {"measurement": "CD8+", "setting": "[1]; 50 mg/kg dosed twice orally", "value": 16.42, "unit": "%"}, {"measurement": "CD69+", "setting": "[1]; 50 mg/kg dosed twice orally", "value": 17.06, "unit": "%"}, {"measurement": "CD69+ in CD4+", "setting": "[1]; 50 mg/kg dosed twice orally", "value": 32.14, "unit": "%"}, {"measurement": "CD69+ in CD8+", "setting": "[1]; 50 mg/kg dosed twice orally", "value": 46.44, "unit": "%"}, {"measurement": "CD4+", "setting": "[1]; 100 mg/kg dosed twice orally", "value": 23.18, "unit": "%"}, {"measurement": "CD8+", "setting": "[1]; 100 mg/kg dosed twice orally", "value": 16.70, "unit": "%"}, {"measurement": "CD69+", "setting": "[1]; 100 mg/kg dosed twice orally", "value": 28.58, "unit": "%"}, {"measurement": "CD69+ in CD4+", "setting": "[1]; 100 mg/kg dosed twice orally", "value": 47.50, "unit": "%"}, {"measurement": "CD69+ in CD8+", "setting": "[1]; 100 mg/kg dosed twice orally", "value": 63.96, "unit": "%"}, {"measurement": "IFN-γ", "setting": "[1]; 25 mg/kg dosed twice orally", "value": 5.26, "unit": "pg/mL"}, {"measurement": "IL-2", "setting": "[1]; 25 mg/kg dosed twice orally", "value": 391.33, "unit": "pg/mL"}, {"measurement": "IL-6", "setting": "[1]; 25 mg/kg dosed twice orally", "value": 461.65, "unit": "pg/mL"}, {"measurement": "IL-10", "setting": "[1]; 25 mg/kg dosed twice orally", "value": 39.88, "unit": "pg/mL"}, {"measurement": "TNF-α", "setting": "[1]; 25 mg/kg dosed twice orally", "value": 46.78, "unit": "pg/mL"}, {"measurement": "IFN-γ", "setting": "[1]; 50 mg/kg dosed twice orally", "value": 12.99, "unit": "pg/mL"}, {"measurement": "IL-2", "setting": "[1]; 50 mg/kg dosed twice orally", "value": 849.50, "unit": "pg/mL"}, {"measurement": "IL-6", "setting": "[1]; 50 mg/kg dosed twice orally", "value": 1186.80, "unit": "pg/mL"}, {"measurement": "IL-10", "setting": "[1]; 50 mg/kg dosed twice orally", "value": 50.88, "unit": "pg/mL"}, {"measurement": "TNF-α", "setting": "[1]; 50 mg/kg dosed twice orally", "value": 97.78, "unit": "pg/mL"}, {"measurement": "IFN-γ", "setting": "[1]; 100 mg/kg dosed twice orally", "value": 50.77, "unit": "pg/mL"}, {"measurement": "IL-2", "setting": "[1]; 100 mg/kg dosed twice orally", "value": 1413.82, "unit": "pg/mL"}, {"measurement": "IL-6", "setting": "[1]; 100 mg/kg dosed twice orally", "value": 2185.05, "unit": "pg/mL"}, {"measurement": "IL-10", "setting": "[1]; 100 mg/kg dosed twice orally", "value": 68.38, "unit": "pg/mL"}, {"measurement": "TNF-α", "setting": "[1]; 100 mg/kg dosed twice orally", "value": 170.92, "unit": "pg/mL"}]}
{"smiles": "CCCCNC(=O)c1ccc2c(c1)N(Cc1ccc(OC(F)(F)F)cc1)C(=O)[C@@H](N)CS2(=O)=O.Cl", "note": "[Example 67, (3R)-3-amino-N-butyl-1,1,4-trioxo-5-{[4-(trifluoromethoxy)phenyl]methyl}-2,3,4,5-tetrahydro-1λ^6,5-benzothiazepine-7-carboxamide hydrochloride]", "values": [{"measurement": "CD8 T cell viability [Number of Living Cells] average", "setting": "CD8 T cells; 0.03 μM, CD8 cells & M21", "value": "22933.00 Number of Living Cells"}, {"measurement": "CD8 T cell viability [Number of Living Cells] average", "setting": "CD8 T cells; 0.03 μM, CD8 only", "value": "23523.00 Number of Living Cells"}, {"measurement": "CD8 T cell viability [Number of Living Cells] average", "setting": "CD8 T cells; 0.1 μM, CD8 cells & M21", "value": "23942.33 Number of Living Cells"}, {"measurement": "CD8 T cell viability [Number of Living Cells] average", "setting": "CD8 T cells; 0.1 μM, CD8 only", "value": "24094.33 Number of Living Cells"}, {"measurement": "CD8 T cell viability [Number of Living Cells] average", "setting": "CD8 T cells; 0.3 μM, CD8 cells & M21", "value": "23944.67 Number of Living Cells"}, {"measurement": "CD8 T cell viability [Number of Living Cells] average", "setting": "CD8 T cells; 0.3 μM, CD8 only", "value": "23739.00 Number of Living Cells"}, {"measurement": "CD8 T cell viability [Number of Living Cells] average", "setting": "CD8 T cells; 1 μM, CD8 cells & M21", "value": "24569.67 Number of Living Cells"}, {"measurement": "CD8 T cell viability [Number of Living Cells] average", "setting": "CD8 T cells; 1 μM, CD8 only", "value": "23066.67 Number of Living Cells"}, {"measurement": "CD8 T cell viability [Number of Living Cells] average", "setting": "CD8 T cells; 3 μM, CD8 cells & M21", "value": "24633.67 Number of Living Cells"}, {"measurement": "CD8 T cell viability [Number of Living Cells] average", "setting": "CD8 T cells; 3 μM, CD8 only", "value": "23975.33 Number of Living Cells"}, {"measurement": "CD8 T cell viability [Number of Living Cells] average", "setting": "CD8 T cells; 10 μM, CD8 cells & M21", "value": "24006.33 Number of Living Cells"}, {"measurement": "CD8 T cell viability [Number of Living Cells] average", "setting": "CD8 T cells; 10 μM, CD8 only", "value": "25522.67 Number of Living Cells"}, {"measurement": "number of CD8 T cells; number of tumor cells in the absence of CD8 T cells", "setting": "CD8 T cells; CD8 / M21 cultures", "value": "neither the number of CD8 T cells nor the number of tumor cells in the absence of CD8 T cells was substantially modulated"}]}
{"smiles": "Cl.N[C@H]1CS(=O)(=O)c2cc(F)c(C(=O)NCCCC(F)(F)F)cc2N(Cc2ccc(Cl)cc2)C1=O", "note": "[Example 70, (3R)-3-amino-5-[(4-chlorophenyl)methyl]-8-fluoro-1,1,4-trioxo-N-(4,4,4-trifluoro-butyl)-2,3,4,5-tetrahydro-1λ^6,5-benzothiazepine-7-carboxamide hydrochloride]", "values": [{"measurement": "Proliferated OT-II cells, average", "setting": "OT-II cells; 1 mg/kg", "value": 18.70, "unit": "% gated"}, {"measurement": "CD69+ cells, B cells of recipient animal", "setting": "OT-II cells; 10 mg/kg", "value": 8.62, "unit": "% gated"}, {"measurement": "CD69+ cells, CD8 T cells of recipient animal", "setting": "OT-II cells; 10 mg/kg", "value": 7.08, "unit": "% gated"}, {"measurement": "CD69+ cells, WT CD4 T cells of recipient animal", "setting": "OT-II cells; 10 mg/kg", "value": 12.26, "unit": "% gated"}, {"measurement": "CD69+ cells, transferred OT-II cells", "setting": "OT-II cells; 10 mg/kg", "value": 59.47, "unit": "% gated"}]}
